# Results reported in patent publication US20250161232A1, “RETINOL FORMULATION (VI)” (DSM IP Assets B.V., priority 2022, published 2025).
# Assay: Storage stability of retinol formulations at 40° C. (retinol content after storage)
# Type: physicochemical
# Details: storage at 40° C.
# Method: To determine the stability of these formulations, they were stored (at 40° C.) for 2 weeks and 12 weeks. And the loss of retinol was measure (the initial value was 100%).
structure (smiles),measurement,value
"CC1=C(/C=C/C(C)=C/C=C/C(C)=C/CO)C(C)(C)CCC1 [retinol, Retinol]",cis/trans ratio of the retinol during storage (in words),stable
